Literature values, collected in US7807833B2, “Method for total synthesis of ecteinascidins and intermediate compounds thereof” (Japan Science and Technology Agency, priority 2002, dated 2010).

Test system: cancer cells

IC50 (background statement, cell lines not named, read-out: IC50, depressing the proliferation of cancer cells)	SMILES	times more potent than Toxol, Camptotesin, Adriamycin or Mitomycin in depressing the proliferation of cancer cells (relative to currently used carcinostatic agents)	antineoplastic activity compared with ET 743 (qualitative background statement)
0.1 to 1 nM	COc1cc2c(cc1O)CCN[C@]21CS[C@@H]2c3c(OC(C)=O)c(C)c4c(c3[C@H](COC1=O)N1[C@@H]2[C@H]2c3c(cc(C)c(OC)c3O)C[C@@H]([C@@H]1O)N2C)OCO4 [Et 743, ecteinascidin 743]	10 to 100 times	
	COc1c(C)cc2c(c1O)[C@@H]1[C@@H]3Cc4c(OC(C)=O)c(C)c5c(c4[C@H](CN4C(=O)c6ccccc6C4=O)N3[C@@H](C#N)[C@H](C2)N1C)OCO5 [phthalascidin]		same activity to ET 743
